{
  "source": "patent US20220373437A1",
  "about": "“SYSTEM FOR EVALUATING CHEMO-PREVENTIVE POTENTIAL OF PHC AND ITS PREPARED CHITOSAN NANOPARTICLES” (priority 2022, published 2022)",
  "assay_type_in_all_cases": "in vivo, Wistar rats",
  "key": {"[1]": {"tested_on": "DEN induced hepatocellular carcinoma", "test": "Macroscopic hepatic nodule incidence in DEN + CCl4 induced HCC rats", "conditions": "DEN 200 mg/kg i.p. + weekly CCl4 s.c., 16 weeks, HCC control group 6-7 nodules, normal control none", "description": "(§1) In an embodiment, an injection 106 is used for inducing Hepatocellular Carcinoma (HCC), wherein for the induction of HCC, rats administered single intraperitoneal injection of DEN (200 mg/kg body weight) followed by weekly subcutaneous injections of carbon tetrachloride (3 ml/kg body weight) for 6 weeks, wherein the rats are divided into eight groups, from which group 1 is served as normal control, and group 2-8 are given single dose of DEN and repeated dose of CCl4 till the completion of the experimental duration of 16 weeks, wherein freshly prepared solution of DEN in normal saline is used for the induction of HCC in rats by administering 200 mg/kg, i.p., PHC (2:1:1) is dispersed in normal saline suspension to administer at doses of 900 mg/kg, p.o and 1935 mg/kg p.o. Soranib (Sorafenib 200 mg) tablets are powdered and dissolve in normal saline solution and the freshly prepared solution is used as standard drug.\nIn another embodiment, all the rats are allowed to consume commercial pellet diet during the course of the study, wherein eight groups of rat are differentiated into six groups consisting of eight rats and two groups consisting of twelve rats.\nIn one embodiment, a refrigerator 124 is coupled to the treatment unit 110 for storing the tissues at −20° C. and observing the presence of nodules using the UV spectrophotometer 114. […]"}, "[2]": {"tested_on": "DEN induced hepatocellular carcinoma", "test": "Liver histopathology (H and E stained sections) in DEN + CCl4 induced HCC rats", "conditions": "16 weeks", "description": "as §1\n(§2) In an embodiment, a collection unit 108 is used for collecting serum and tissue samples after anesthetizing overnight fasted rats using intraperitoneal administration of thiopentone sodium at a dose of 40 mg/kg, wherein the blood sample is collected by retro-orbital plexus followed by cardiac puncture.\nIn one embodiment, a micropipette 122 is coupled to the treatment unit 110 for pouring formalin solution for histopathological examination. […]"}, "[3]": {"tested_on": "DEN induced hepatocellular carcinoma", "test": "Total bilirubin, total protein, albumin, globulin and A/G ratio in DEN + CCl4 induced HCC rats", "conditions": "ANOVA followed by Dunnett's t-test vs HCC group", "description": "as §1, §2\nIn another embodiment, the treatment unit 110 comprises a centrifuge 116 for centrifugating the collected sample of blood at 3000 rpm for 10 minutes to separate the serum, which is kept at −20° C. until further analysis.\nIn another embodiment, the live markers are selected from a group comprising Alanine Aminotransaminase (ALT)/Serum Glutamate Pyruvate Transaminase (SGPT), Aspartate Aminotransaminase (AST)/Serum Glutamate Oxaloacetate Transaminase (SGOT), Alkaline Phosphatase (ALP), Lactate dehydrogenase (LDH), total protein, albumin, globulin and total bilirubin.\nFIG. 6 illustrates effect on total bilirubin, total protein, albumin and globulin in control and experimental groups in accordance with an embodiment of the present disclosure. All values are expressed as mean±Standard deviation (SD) (n=6) except n=5 in Plant ‘c’ group. Statistical analysis is done using One way Analysis of Variance (ANOVA) followed by Dunnett's t-test using GraphPad Prism Version 8.0.1. Where, HCC is compared with NC group while the treatment groups (Plant ‘a’, Plant ‘b’, Plant ‘c’, PHC (2:1:1), CNP-EL and STD) are compared with HCC group. ^#P<0.0001 is very highly significant when compared with NC, ^aP<0.0001 is very highly significant, ^bP<0.001 is highly significant, ^cP<0.01 is very significant, ^dP<0.05 is significant and ns=not significant when compared with HCC group. Where NC is normal control group; HCC is hepatocellular carcinoma group; Plant ‘a’ group is Berberis aristata treated group; Plant ‘b’ group is Andrographis paniculata treated group; Plant ‘c’ group is Thevetia peruviana treated group; PHC (2:1:1) group is Polyherbal combination of 2:1:1 treated group; CNP-EL group is Chitosan nanoparticles of PHC (2:1:1) treated group and STD group is Standard Sorafenib treated group. Unit: Bilirubin: mg/dl, Total protein, Albumin and globulin: gm/dl."}, "[4]": {"tested_on": "DEN induced hepatocellular carcinoma", "test": "Lipid peroxidation (MDA) in liver tissue homogenates of DEN + CCl4 induced HCC rats", "conditions": "vs HCC group", "description": "as §1\nIn one embodiment, a tissue homogenizer 120 is coupled to the treatment unit 110 for preparing ten percentage homogenates of liver tissue. […]\nFIG. 7 illustrates effect on lipid peroxidation (LPO) in control and experimental groups in accordance with an embodiment of the present disclosure. All values are expressed as mean±Standard deviation (SD) (n=6) except n=5 in Plant ‘c’ group. […]\nMalondialdehyde (MDA), an end product of LPO is assessed in the tumor tissues homogenates. […]"}},
  "data": [
    {"smiles": "CNC(=O)c1cc(Oc2ccc(NC(=O)Nc3ccc(Cl)c(C(F)(F)F)c3)cc2)ccn1", "note": "[STD, Sorafenib]", "values": [
      {"measurement": "number of macroscopically visible hepatic nodules", "setting": "[1]", "result": "0-1"},
      {"measurement": "histopathology of H and E stained section of liver (40×)", "setting": "[2]", "result": "hepatic tissue with cytoplasm, less necrosis of cell, altered hepatocytes and hepatocellular architecture"},
      {"measurement": "A/G ratio, change compared to HCC group", "setting": "[3]", "result": "very highly significant (^aP<0.0001) increased"},
      {"measurement": "level of albumin, change compared to HCC group", "setting": "[3]", "result": "very highly significant (^aP<0.0001) increased"},
      {"measurement": "level of globulin, change compared to HCC group", "setting": "[3]", "result": "very highly significant (^aP<0.0001) increased"},
      {"measurement": "level of total bilirubin, change compared to HCC group", "setting": "[3]", "result": "very highly significantly (^aP<0.0001) decreased"},
      {"measurement": "level of total protein, change compared to HCC group", "setting": "[3]", "result": "very highly significant (^aP<0.0001) increased"},
      {"measurement": "levels of MDA (lipid peroxidation), change compared to HCC group", "setting": "[4]", "result": "very highly significant (^aP<0.0001) decreased"}
    ]}
  ]
}
